Source: ChEMBL document CHEMBL3603809, “New Frontiers in Selective Human MAO-B Inhibitors” (J Med Chem, 2015)

Tests used:
[1] = target: T1, Amine oxidase [flavin-containing] B (Homo sapiens, UniProt P27338); test: Inhibition of human MAOB
T1 sequence (P27338 whole entry): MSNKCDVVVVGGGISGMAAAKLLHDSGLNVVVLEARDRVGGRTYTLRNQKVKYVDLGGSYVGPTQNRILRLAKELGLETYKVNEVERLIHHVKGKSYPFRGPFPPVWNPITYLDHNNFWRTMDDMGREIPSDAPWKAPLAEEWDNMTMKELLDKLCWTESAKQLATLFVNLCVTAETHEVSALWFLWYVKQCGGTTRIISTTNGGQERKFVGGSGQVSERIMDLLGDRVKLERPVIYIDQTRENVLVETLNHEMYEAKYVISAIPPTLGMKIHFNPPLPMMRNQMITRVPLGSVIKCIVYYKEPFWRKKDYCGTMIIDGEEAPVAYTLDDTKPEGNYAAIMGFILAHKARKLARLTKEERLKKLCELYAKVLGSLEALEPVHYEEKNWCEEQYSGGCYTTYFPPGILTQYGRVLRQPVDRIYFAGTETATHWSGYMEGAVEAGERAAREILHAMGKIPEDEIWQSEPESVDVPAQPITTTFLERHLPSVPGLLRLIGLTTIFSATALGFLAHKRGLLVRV

[2] = target: T1, Amine oxidase [flavin-containing] B; test: Competitive inhibition of human liver MAOB expressed in Pichia pastoris
Homo sapiens = organism: Homo sapiens; test: Selectivity index, ratio of Ki for human MAOA to Ki for human MAOB
[3] = Inhibition of baboon MAOB; parameters: species or system Papio

Ki [1] [nM] | SMILES | also measured
68 | Cn1c(=O)c2c(nc(OCc3cccc(Br)c3)n2C)n(C)c1=O | –
– | C(=C\Cc1ccccc1)/Cc1ccccc1 | Ki [2]: 35 nM
32 | C#CCN(C)c1nc2nc(CCC3CCN(Cc4ccccc4)CC3)ccc2c(-c2ccccc2)c1C#N | Ratio Ki (Homo sapiens): > 3
– | CN(C)c1ccc(/N=C/c2ccccn2)cc1 | Ratio Ki (Homo sapiens): 3
– | Cn1c(=O)c2c(nc(/C=C/C=C/c3cccc(Br)c3)n2C)n(C)c1=O | Ki [3]: 17 nM
62 | Cn1c(=O)c2c(nc(OCc3ccc(Br)cc3)n2C)n(C)c1=O | –

SMILES | Ki [1] [nM] | also measured
C#CN(C)Cc1ccc(C(=O)NC2CC(C)(C)N([O])C(C)(C)C2)cc1 | 22000 | –
